# Results: ChEMBL document CHEMBL5034046, “Discovery of Small-Molecule CD33 Pre-mRNA Splicing Modulators” (ACS Med Chem Lett, 2022)
# pEC50, pIC50, pKi: −log10 of the molar value.
# Experiments:
# [1] = Modulation of CD33 pre-mRNA splicing in human K562 cells assessed as induction of exon 2 skipping measured after 18 to 24 hrs by Nano-Luciferase reporter assay; type: cell-based
# [2] = Modulation of CD33 pre-mRNA splicing in human K562 cells assessed as induction of exon 2 skipping measured after 16 to 24 hrs by Nano-Luciferase counter screen assay; type: cell-based
# [3] = […] level in human THP-1 cell surface incubated for 48 to 72 hrs by high content imaging assay; type: functional
# [4] = […] level in human THP-1 cell surface at top concentration incubated for 48 to 72 hrs by high content imaging assay; type: functional; conditions: time 48-72 hrs
# [5] = Increase in CD11c level in human THP-1 cell surface incubated for 48 to 72 hrs by high content imaging assay; type: functional
# THP-1 = assay: Cytotoxicity against human THP-1 cells assessed as reduction in cell viability by DAPI staining based assay; type: functional
# [6] = biological target: Proprotein convertase subtilisin/kexin type 9 (Homo sapiens, UniProt Q8NBP7); assay: Inhibition of PCSK9 translation in human THP-1 cells by AlphaLISA assay; type: cell-based
# K562 = assay: Modulation of CD33 pre-mRNA splicing in human K562 cells assessed as induction of exon 2 skipping at 25 uM measured after 18 to 24 hrs by Nano-Luciferase reporter assay; type: cell-based; conditions: filed as modulator, time 18-24 hrs
# [7] = Apparent permeability in MDCK cells; type: ADME, cell-based, Canis lupus familiaris; conditions: dog
# [8] = Distribution coefficient, logD of compound at pH 7.4 by shake flask method; type: physicochemical; conditions: octanol/water
# [9] = Solubility of compound at pH 7.4; type: physicochemical; conditions: buffer
# [10] = Cytotoxicity against human THLE cells by ATP depletion assay; type: cell-based
# [11] = biological target: T1, Voltage-gated inwardly rectifying potassium channel KCNH2 (Homo sapiens, UniProt Q12809); assay: Displacement of [3H]-dofetilide from human ERG
# [12] = biological target: T1, Voltage-gated inwardly rectifying potassium channel KCNH2; assay: Inhibition of human ERG
# [13] = biological target: T2, Alpha-1A adrenergic receptor (Homo sapiens, UniProt P35348); assay: Agonist activity at adrenergic alpha-1A receptor (unknown origin) expressed in cells assessed as change in fluorescence measured after 24 hrs by FLIPR assay; type: functional, cell-based
# T2 sequence (P35348 whole entry): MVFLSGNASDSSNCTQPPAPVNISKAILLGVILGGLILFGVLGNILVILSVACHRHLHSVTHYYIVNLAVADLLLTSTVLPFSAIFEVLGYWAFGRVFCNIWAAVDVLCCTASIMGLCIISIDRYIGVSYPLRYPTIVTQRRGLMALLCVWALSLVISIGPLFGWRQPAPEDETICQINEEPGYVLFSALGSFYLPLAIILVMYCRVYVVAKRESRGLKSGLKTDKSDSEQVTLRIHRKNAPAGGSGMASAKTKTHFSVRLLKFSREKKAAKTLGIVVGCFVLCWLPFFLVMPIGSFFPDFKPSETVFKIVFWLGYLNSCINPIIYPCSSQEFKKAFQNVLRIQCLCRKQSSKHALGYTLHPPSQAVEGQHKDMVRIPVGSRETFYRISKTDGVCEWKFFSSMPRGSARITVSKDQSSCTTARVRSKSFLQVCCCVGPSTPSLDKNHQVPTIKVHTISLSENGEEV
# [14] = biological target: Beta-2 adrenergic receptor (Homo sapiens, UniProt P07550); assay: Agonist activity at adrenergic beta2 receptor (unknown origin) expressed in cells measured after 90 mins by beta-arrestin recruitment assay; type: functional, cell-based
# Cannabinoid receptor 1 = Cannabinoid receptor 1 (Homo sapiens, UniProt P21554); assay: Agonist activity at cannabinoid receptor 1 (unknown origin) expressed in cells measured after 90 mins by beta-arrestin recruitment assay; type: functional, cell-based
# D(1A) dopamine receptor = D(1A) dopamine receptor (Homo sapiens, UniProt P21728); assay: Agonist activity at dopamine D1 receptor (unknown origin) expressed in cells assessed as change in fluorescence measured after 24 hrs by FLIPR assay; type: functional, cell-based
# Histamine H1 receptor = Histamine H1 receptor (Homo sapiens, UniProt P35367); assay: Agonist activity at histamine H1 receptor (unknown origin) expressed in cells assessed as change in fluorescence measured after 24 hrs by FLIPR assay; type: functional, cell-based
# [15] = biological target: 5-hydroxytryptamine receptor 2B (Homo sapiens, UniProt P41595); assay: Agonist activity at serotonin 2B receptor (unknown origin) expressed in cells assessed as change in fluorescence measured after 24 hrs by FLIPR assay; type: functional, cell-based
# [16] = biological target: Sodium-dependent serotonin transporter (Homo sapiens) (UniProt P31645); assay: Inhibition of serotonin transporter (unknown origin) expressed in cells incubated for 30 mins by amine transporter assay; type: cell-based
# [17] = biological target: Sodium-dependent noradrenaline transporter (Homo sapiens) (UniProt P23975); assay: Inhibition of norepinephrine transporter (unknown origin) expressed in cells incubated for 60 mins by amine transporter assay; type: cell-based
# [18] = biological target: Sodium-dependent dopamine transporter (Homo sapiens) (UniProt Q01959); assay: Inhibition of dopamine transporter (unknown origin) expressed in cells incubated for 60 mins by amine transporter assay; type: cell-based
# [19] = biological target: T3, Muscarinic acetylcholine receptor M1 (Homo sapiens, UniProt P11229); assay: Antagonist activity at muscarinic M1 receptor (unknown origin) expressed in cells assessed as change in fluorescence measured after 24 hrs by FLIPR assay; type: functional, cell-based
# T3 sequence (P11229 whole entry): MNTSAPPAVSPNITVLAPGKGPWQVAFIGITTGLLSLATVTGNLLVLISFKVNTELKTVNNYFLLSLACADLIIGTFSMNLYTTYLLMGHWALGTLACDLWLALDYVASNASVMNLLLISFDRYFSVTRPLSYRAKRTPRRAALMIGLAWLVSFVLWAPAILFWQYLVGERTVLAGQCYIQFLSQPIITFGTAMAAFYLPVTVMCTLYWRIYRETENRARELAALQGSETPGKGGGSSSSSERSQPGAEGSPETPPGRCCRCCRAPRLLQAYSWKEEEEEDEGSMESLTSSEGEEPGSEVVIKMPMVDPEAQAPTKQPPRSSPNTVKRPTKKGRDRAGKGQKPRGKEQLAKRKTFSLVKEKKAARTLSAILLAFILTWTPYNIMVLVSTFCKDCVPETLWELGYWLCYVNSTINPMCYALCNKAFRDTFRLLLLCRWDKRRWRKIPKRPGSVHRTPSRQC
# [20] = biological target: Bromodomain-containing protein 4 (Homo sapiens, UniProt O60885); assay: Inhibition of His-tagged BRD4 (unknown origin) using tetra-acetylated histone H4 peptide as substrate by fluorescent polarization binding assay
# [21] = Inhibition of PDE3A1 (unknown origin) assessed as conversion of cAMP to AMP measured after 30 mins by YSi scintillation proximity assay; parameters: species or system Homo sapiens
# [22] = biological target: 3',5'-cyclic-AMP phosphodiesterase 4D (Homo sapiens, UniProt Q08499); assay: Inhibition of PDE4D3 (unknown origin) assessed as conversion of cAMP to AMP measured after 30 mins by YSi scintillation proximity assay
# [23] = biological target: cGMP-specific 3',5'-cyclic phosphodiesterase (Homo sapiens, UniProt O76074); assay: Inhibition of PDE5A1 (unknown origin) assessed as conversion of cAMP to AMP measured after 30 mins by YSi scintillation proximity assay
# Proprotein convertase subtilisin/kexin type 9, sequence (Q8NBP7 31-152 limits assumed): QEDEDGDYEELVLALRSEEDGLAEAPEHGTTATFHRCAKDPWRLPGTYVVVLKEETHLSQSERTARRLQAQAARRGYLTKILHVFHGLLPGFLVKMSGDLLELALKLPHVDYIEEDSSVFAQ
# Proprotein convertase subtilisin/kexin type 9, sequence (Q8NBP7 153-692 limits assumed): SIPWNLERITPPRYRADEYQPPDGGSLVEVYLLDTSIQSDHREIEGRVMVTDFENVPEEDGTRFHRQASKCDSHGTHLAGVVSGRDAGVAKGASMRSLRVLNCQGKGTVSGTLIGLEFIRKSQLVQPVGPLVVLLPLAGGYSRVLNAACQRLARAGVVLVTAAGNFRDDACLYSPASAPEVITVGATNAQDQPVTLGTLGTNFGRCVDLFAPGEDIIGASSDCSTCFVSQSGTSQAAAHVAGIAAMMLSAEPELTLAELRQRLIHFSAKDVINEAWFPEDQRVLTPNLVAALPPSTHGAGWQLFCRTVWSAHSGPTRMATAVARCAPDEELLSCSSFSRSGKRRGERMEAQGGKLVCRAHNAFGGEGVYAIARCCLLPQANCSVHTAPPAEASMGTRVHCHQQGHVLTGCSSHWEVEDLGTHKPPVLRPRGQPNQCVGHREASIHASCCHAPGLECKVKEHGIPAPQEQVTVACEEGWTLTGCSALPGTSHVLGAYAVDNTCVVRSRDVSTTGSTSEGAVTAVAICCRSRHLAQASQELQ
# T1 sequence (Q12809 whole entry): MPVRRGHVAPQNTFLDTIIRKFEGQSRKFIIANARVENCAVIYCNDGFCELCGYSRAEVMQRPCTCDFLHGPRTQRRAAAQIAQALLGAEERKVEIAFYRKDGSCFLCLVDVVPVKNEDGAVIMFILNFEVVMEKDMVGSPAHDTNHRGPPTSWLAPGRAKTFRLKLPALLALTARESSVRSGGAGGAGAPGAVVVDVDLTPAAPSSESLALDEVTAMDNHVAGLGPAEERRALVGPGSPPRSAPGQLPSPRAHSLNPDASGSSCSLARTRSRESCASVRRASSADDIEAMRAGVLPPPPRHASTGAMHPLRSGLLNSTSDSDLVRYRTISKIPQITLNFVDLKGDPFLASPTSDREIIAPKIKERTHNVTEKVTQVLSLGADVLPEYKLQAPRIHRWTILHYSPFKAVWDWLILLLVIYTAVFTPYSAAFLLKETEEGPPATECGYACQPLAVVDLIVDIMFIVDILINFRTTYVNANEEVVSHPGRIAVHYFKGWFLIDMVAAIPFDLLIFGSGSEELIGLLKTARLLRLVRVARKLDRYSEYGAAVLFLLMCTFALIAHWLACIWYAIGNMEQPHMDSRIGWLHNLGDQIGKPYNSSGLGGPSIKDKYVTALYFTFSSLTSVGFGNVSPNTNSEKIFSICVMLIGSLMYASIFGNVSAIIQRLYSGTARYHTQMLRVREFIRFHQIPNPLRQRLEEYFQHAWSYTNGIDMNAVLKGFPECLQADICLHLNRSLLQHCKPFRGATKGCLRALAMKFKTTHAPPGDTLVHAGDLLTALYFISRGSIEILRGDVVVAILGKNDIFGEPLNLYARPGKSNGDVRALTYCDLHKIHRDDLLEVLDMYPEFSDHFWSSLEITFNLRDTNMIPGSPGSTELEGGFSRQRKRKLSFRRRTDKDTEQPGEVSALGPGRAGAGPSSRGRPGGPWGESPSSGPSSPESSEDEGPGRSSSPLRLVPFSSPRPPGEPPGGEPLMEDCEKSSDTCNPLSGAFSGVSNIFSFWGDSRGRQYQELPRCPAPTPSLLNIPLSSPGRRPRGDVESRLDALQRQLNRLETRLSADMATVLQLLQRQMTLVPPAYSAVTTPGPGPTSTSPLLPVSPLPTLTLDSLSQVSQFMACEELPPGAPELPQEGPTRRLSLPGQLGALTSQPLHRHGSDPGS
# Beta-2 adrenergic receptor, sequence (P07550 whole entry): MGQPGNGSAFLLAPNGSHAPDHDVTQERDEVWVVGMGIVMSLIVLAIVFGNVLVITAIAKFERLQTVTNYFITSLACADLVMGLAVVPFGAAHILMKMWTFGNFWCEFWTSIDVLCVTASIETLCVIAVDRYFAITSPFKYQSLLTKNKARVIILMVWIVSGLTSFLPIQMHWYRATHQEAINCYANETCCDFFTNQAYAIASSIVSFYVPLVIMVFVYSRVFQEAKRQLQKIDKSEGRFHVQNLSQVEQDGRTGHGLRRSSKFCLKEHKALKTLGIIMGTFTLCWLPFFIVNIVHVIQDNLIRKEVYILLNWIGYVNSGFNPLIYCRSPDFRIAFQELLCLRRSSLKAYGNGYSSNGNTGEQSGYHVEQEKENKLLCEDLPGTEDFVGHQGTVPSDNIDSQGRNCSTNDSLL
# Histamine H1 receptor, sequence (P35367 whole entry): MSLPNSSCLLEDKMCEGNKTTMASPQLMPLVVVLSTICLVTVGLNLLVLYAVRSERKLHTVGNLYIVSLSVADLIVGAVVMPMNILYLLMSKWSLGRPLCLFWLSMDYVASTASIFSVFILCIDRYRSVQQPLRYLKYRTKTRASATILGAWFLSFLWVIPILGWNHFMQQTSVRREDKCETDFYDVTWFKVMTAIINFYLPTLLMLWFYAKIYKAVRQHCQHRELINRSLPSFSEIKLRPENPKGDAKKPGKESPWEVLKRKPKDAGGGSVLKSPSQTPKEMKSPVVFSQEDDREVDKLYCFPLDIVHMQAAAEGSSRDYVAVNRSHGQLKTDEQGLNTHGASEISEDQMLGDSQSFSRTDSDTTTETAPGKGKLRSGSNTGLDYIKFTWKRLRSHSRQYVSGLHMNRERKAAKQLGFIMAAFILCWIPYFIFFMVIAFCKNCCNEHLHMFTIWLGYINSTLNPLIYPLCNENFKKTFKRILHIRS
# Sodium-dependent serotonin transporter (Homo sapiens), sequence (P31645 whole entry, looked up): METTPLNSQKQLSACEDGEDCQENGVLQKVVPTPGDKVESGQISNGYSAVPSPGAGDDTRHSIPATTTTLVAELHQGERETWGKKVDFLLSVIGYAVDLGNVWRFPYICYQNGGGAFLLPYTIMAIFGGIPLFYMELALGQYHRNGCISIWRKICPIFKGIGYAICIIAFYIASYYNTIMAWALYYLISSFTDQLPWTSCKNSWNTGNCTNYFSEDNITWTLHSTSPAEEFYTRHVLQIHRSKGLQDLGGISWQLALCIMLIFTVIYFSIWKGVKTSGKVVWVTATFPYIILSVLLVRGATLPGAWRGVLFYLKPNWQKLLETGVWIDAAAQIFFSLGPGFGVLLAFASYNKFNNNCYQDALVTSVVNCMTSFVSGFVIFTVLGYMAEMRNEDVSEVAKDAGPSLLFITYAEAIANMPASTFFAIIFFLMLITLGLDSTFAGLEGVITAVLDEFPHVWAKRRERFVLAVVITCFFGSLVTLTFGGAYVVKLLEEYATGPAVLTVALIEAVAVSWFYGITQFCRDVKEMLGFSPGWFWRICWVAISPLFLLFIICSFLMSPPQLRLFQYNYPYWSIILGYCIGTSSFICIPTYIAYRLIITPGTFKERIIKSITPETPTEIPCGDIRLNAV
# Sodium-dependent dopamine transporter (Homo sapiens), sequence (Q01959 whole entry): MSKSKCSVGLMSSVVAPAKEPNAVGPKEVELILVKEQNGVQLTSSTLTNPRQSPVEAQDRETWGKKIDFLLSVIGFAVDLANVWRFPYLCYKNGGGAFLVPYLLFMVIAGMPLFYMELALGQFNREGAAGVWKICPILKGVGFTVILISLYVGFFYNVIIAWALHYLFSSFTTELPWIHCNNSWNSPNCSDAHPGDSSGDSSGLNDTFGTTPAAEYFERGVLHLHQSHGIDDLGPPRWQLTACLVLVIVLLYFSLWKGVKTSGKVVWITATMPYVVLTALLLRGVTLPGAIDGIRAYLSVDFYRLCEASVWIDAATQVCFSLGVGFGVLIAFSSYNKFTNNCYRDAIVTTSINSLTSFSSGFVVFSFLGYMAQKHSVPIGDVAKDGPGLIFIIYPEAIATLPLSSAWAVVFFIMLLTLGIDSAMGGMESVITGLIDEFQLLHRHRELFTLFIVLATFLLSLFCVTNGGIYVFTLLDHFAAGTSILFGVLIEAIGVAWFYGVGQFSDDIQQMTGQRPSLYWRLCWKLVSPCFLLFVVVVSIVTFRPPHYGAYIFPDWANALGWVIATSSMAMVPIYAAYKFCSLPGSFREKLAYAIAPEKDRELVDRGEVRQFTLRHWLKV
# D(1A) dopamine receptor, sequence (P21728 whole entry): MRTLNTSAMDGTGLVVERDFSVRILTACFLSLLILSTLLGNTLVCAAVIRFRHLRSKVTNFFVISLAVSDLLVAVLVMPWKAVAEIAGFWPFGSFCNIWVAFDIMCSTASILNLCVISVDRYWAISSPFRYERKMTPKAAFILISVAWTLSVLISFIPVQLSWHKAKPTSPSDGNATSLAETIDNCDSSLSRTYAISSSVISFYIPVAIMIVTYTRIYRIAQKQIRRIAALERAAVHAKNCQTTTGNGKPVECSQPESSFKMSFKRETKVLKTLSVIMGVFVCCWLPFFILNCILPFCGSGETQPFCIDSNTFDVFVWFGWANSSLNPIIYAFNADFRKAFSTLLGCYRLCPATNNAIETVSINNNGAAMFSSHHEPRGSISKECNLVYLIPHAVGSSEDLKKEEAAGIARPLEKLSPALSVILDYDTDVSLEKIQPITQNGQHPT
# 5-hydroxytryptamine receptor 2B, sequence (P41595 whole entry): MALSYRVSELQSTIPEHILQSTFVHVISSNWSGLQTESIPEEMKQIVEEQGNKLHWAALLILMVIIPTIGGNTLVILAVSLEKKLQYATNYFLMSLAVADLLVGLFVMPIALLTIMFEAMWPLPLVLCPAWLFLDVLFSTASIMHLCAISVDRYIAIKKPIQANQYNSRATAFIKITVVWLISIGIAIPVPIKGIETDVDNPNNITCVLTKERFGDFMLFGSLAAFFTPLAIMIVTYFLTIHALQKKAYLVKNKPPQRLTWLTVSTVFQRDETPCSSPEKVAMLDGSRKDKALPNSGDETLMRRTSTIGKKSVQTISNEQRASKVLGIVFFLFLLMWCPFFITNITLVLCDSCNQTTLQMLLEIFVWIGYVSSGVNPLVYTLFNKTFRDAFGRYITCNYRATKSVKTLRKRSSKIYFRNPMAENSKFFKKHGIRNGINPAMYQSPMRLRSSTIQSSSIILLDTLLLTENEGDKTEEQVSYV
pEC50 [1],pEC50 [3],pEC50 [5],pIC50 [6],SMILES,pEC50 [2],Emax [4],pEC50 (THP-1),Emax (K562),other results
< 5.00,< 4.52,< 4.52,5.55,Cc1cncc(-c2ccc(C(=O)N(c3ncccc3Cl)[C@@H]3CCCNC3)cc2)n1,< 5.00,-32%,< 4.52,–,–
5.25,5.22,< 5.00,5.51,CNc1cncc(-c2ccc(C(=O)N(c3ncccc3Cl)[C@@H]3CCCNC3)cc2)n1,< 5.00,-25%,< 5.00,100%,–
< 5.00,4.41,< 4.30,5.52,CN(C)c1cncc(-c2ccc(C(=O)N(c3ncccc3Cl)[C@@H]3CCCNC3)cc2)n1,< 5.00,-41%,< 4.30,–,–
5.36,–,–,6.05,Cc1ccc2nnn(-c3ccc(C(=O)N(c4ncccc4Cl)[C@@H]4CCCNC4)cc3)c2n1,< 4.60,–,–,155%,–

# Second part, the molecule before the results:
SMILES,pEC50 [1],pEC50 [3],pEC50 [5],pIC50 [6],pEC50 [2],Emax [4],pEC50 (THP-1),Emax (K562),other results
Cc1cnc2c(c1)nnn2-c1ccc(C(=O)N(c2ncccc2Cl)[C@@H]2CCCNC2)cc1,5.85,–,–,–,< 5.00,–,–,80%,–
Cc1cccnc1N(C(=O)c1ccc(-c2cnn3cccnc23)cc1)[C@@H]1CCCNC1,5.43,4.48,< 4.30,5.66,< 5.00,-41%,< 4.30,145%,–
O=C(c1ccc(-c2cnn3cccnc23)cc1)N(c1nccc2ccccc12)[C@@H]1CCCNC1,6.24,–,–,5.89,< 5.00,–,–,206%,–
O=C(c1ccc(-n2nnc3cccnc32)cc1)N(c1ncccc1Cl)[C@@H]1CCCNC1,5.35,–,–,–,< 5.00,–,–,100%,–
Cc1cnc2c(-c3ccc(C(=O)N(c4ncccc4C)[C@@H]4CCCNC4)cc3F)cnn2c1,5.11,5.68,< 5.00,5.77,< 5.00,-43%,< 5.00,100%,Papp [7]: 10.1 ×10⁻⁶ cm/s; logD [8]: 1.1; solubility [9]: 460 µM; pIC50 [10]: 3.69; pKi [11]: 5.14; pEC50 [12]: 4.90; pEC50 [13]: < 5.00; pEC50 [14]: < 5.00; pEC50 (Cannabinoid receptor 1): < 5.00; pEC50 (D(1A) dopamine receptor): < 5.00; pEC50 (Histamine H1 receptor): < 5.00; pEC50 [15]: < 5.00; Kb [16]: > 10 µM; Kb [17]: > 10 µM; Kb [18]: > 10 µM; pKi [19]: 6.40; pIC50 [20]: < 4.60; pIC50 [21]: 4.00; pIC50 [22]: 4.41; pIC50 [23]: < 3.70
COC(=O)c1c(-c2ccc(C(=O)N(c3ncccc3C)[C@@H]3CCCNC3)cc2)cnn1C,5.44,5.08,< 4.30,5.60,< 5.00,-35%,< 4.30,220%,–
